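96-well plates; 48 h exposure; 5 concentrations. Endpoints by linear interpolation between flanking doses. Not reached: highest tested concentration assigned. At the GI50, growth is halved. TGI marks complete inhibition of growth.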
Legend:
Experiment in all cases: DTP human tumour cell line panel, 48 h
HCT-116 colon = system: HCT-116 colon
OVCAR-5 ovarian = system: OVCAR-5 ovarian
HT29 colon = system: HT29 colon
HOP-92 NSCLC = system: HOP-92 NSCLC
SK-MEL-2 melanoma = system: SK-MEL-2 melanoma
RPMI-8226 leukemia = system: RPMI-8226 leukemia
DU-145 prostate = system: DU-145 prostate
HS 578T breast = system: HS 578T breast
SNB-19 CNS = system: SNB-19 CNS
MCF7 breast = system: MCF7 breast
SF-268 CNS = system: SF-268 CNS
CAKI-1 renal = system: CAKI-1 renal
T-47D breast = system: T-47D breast
LOX IMVI melanoma = system: LOX IMVI melanoma
SR leukemia = system: SR leukemia
UACC-257 melanoma = system: UACC-257 melanoma
UO-31 renal = system: UO-31 renal
SN12C renal = system: SN12C renal
NCI-H226 lung = system: NCI-H226 lung
A498 renal = system: A498 renal
OVCAR-8 ovarian = system: OVCAR-8 ovarian
UACC-62 melanoma = system: UACC-62 melanoma
HOP-62 NSCLC = system: HOP-62 NSCLC
CCRF-CEM leukemia = system: CCRF-CEM leukemia
786-0 renal = system: 786-0 renal
NCI-H460 lung = system: NCI-H460 lung
A549 NSCLC = system: A549 NSCLC
COLO 205 colon = system: COLO 205 colon
ACHN renal = system: ACHN renal
HL-60(TB) leukemia = system: HL-60(TB) leukemia
MDA-MB-231 breast = system: MDA-MB-231 breast
TK-10 renal = system: TK-10 renal
M14 melanoma = system: M14 melanoma
MALME-3M melanoma = system: MALME-3M melanoma
U251 CNS = system: U251 CNS
K-562 leukemia = system: K-562 leukemia
SK-OV-3 ovarian = system: SK-OV-3 ovarian
EKVX NSCLC = system: EKVX NSCLC
HCT-15 colon = system: HCT-15 colon
MDA-N = system: MDA-N
SK-MEL-28 melanoma = system: SK-MEL-28 melanoma
MDA-MB-435 = system: MDA-MB-435
MOLT-4 leukemia = system: MOLT-4 leukemia
OVCAR-4 ovarian = system: OVCAR-4 ovarian
SF-295 CNS = system: SF-295 CNS
IGROV1 ovarian = system: IGROV1 ovarian
KM12 colon = system: KM12 colon
NCI/ADR-RES ovarian = system: NCI/ADR-RES ovarian
SNB-75 CNS = system: SNB-75 CNS
NCI-H522 lung = system: NCI-H522 lung
PC-3 prostate = system: PC-3 prostate
SK-MEL-5 melanoma = system: SK-MEL-5 melanoma
HCC-2998 colon = system: HCC-2998 colon
NCI-H23 lung = system: NCI-H23 lung
OVCAR-3 ovarian = system: OVCAR-3 ovarian
SF-539 CNS = system: SF-539 CNS
BT-549 breast = system: BT-549 breast
SW-620 colon = system: SW-620 colon
RXF 393 renal = system: RXF 393 renal

C#CC(O)/C=C/C(O)CCCC(O)CC#CC(O)C#CC(O)CCCC(O)/C=C/CCCCCC(=O)CCCCCCCCCCCCCC(O)C(O)C#CC(=O)O (stereo not given)
TGI (HCT-116 colon): > 50 µM
TGI (OVCAR-5 ovarian): > 50 µM
TGI (HT29 colon): > 50 µM
TGI (HOP-92 NSCLC): 27.1 µM
TGI (SK-MEL-2 melanoma): 47.3 µM
TGI (RPMI-8226 leukemia): > 50 µM
TGI (DU-145 prostate): > 50 µM
TGI (HS 578T breast): 33.3 µM
TGI (SNB-19 CNS): > 50 µM
TGI (MCF7 breast): 38.7 µM
TGI (SF-268 CNS): > 50 µM
TGI (CAKI-1 renal): > 50 µM
TGI (T-47D breast): 35 µM
TGI (LOX IMVI melanoma): 24.5 µM
TGI (SR leukemia): 26.1 µM
TGI (UACC-257 melanoma): > 50 µM
TGI (UO-31 renal): > 50 µM
TGI (SN12C renal): > 50 µM
TGI (NCI-H226 lung): > 50 µM
TGI (A498 renal): > 50 µM
TGI (OVCAR-8 ovarian): > 50 µM
TGI (UACC-62 melanoma): > 50 µM
TGI (HOP-62 NSCLC): > 50 µM
TGI (CCRF-CEM leukemia): 34.2 µM
TGI (786-0 renal): > 50 µM
TGI (NCI-H460 lung): > 50 µM
TGI (A549 NSCLC): > 50 µM
TGI (COLO 205 colon): > 50 µM
TGI (ACHN renal): > 50 µM
TGI (HL-60(TB) leukemia): > 50 µM
TGI (MDA-MB-231 breast): 24.6 µM
TGI (TK-10 renal): > 50 µM
TGI (M14 melanoma): > 50 µM
TGI (MALME-3M melanoma): > 50 µM
TGI (U251 CNS): > 50 µM
TGI (K-562 leukemia): > 50 µM
TGI (SK-OV-3 ovarian): > 50 µM
TGI (EKVX NSCLC): > 50 µM
TGI (HCT-15 colon): > 50 µM
TGI (MDA-N): > 50 µM
TGI (SK-MEL-28 melanoma): 25 µM
TGI (MDA-MB-435): > 50 µM
TGI (MOLT-4 leukemia): 26.6 µM
TGI (OVCAR-4 ovarian): 17.9 µM
TGI (SF-295 CNS): > 50 µM
TGI (IGROV1 ovarian): 36.6 µM
TGI (KM12 colon): > 50 µM
TGI (NCI/ADR-RES ovarian): > 50 µM
TGI (SNB-75 CNS): 26 µM
TGI (NCI-H522 lung): 18.3 µM
TGI (PC-3 prostate): > 50 µM
TGI (SK-MEL-5 melanoma): > 50 µM
TGI (HCC-2998 colon): > 50 µM
TGI (NCI-H23 lung): > 50 µM

COC(=O)[C@]12CC[C@@H](C)[C@H](C)[C@@H]1C1=CC[C@@H]3[C@@]4(C)CC(=O)[C@H](O)[C@@](C)(CO)[C@@H]4C(=O)C[C@@]3(C)[C@]1(C)CC2
GI50 (OVCAR-3 ovarian): 11.6 µM
TGI (OVCAR-3 ovarian): 24.8 µM
GI50 (HCT-116 colon): 10.9 µM
TGI (HCT-116 colon): 23.3 µM
GI50 (OVCAR-5 ovarian): 20.8 µM
TGI (OVCAR-5 ovarian): 37.6 µM
GI50 (HT29 colon): 14.5 µM
TGI (HT29 colon): 30.4 µM
GI50 (HOP-92 NSCLC): 15.3 µM
TGI (HOP-92 NSCLC): 30.1 µM
GI50 (SK-MEL-2 melanoma): 14.5 µM
TGI (SK-MEL-2 melanoma): 29.4 µM
GI50 (RPMI-8226 leukemia): 0.53 µM
TGI (RPMI-8226 leukemia): 19.4 µM
GI50 (DU-145 prostate): 11.2 µM
TGI (DU-145 prostate): 23.6 µM
GI50 (HS 578T breast): 7.98 µM
TGI (HS 578T breast): 30.4 µM
GI50 (SNB-19 CNS): 12.9 µM
TGI (SNB-19 CNS): 27.8 µM
GI50 (MCF7 breast): 12.1 µM
TGI (MCF7 breast): 27.5 µM
GI50 (SF-268 CNS): 12.6 µM
TGI (SF-268 CNS): 26.5 µM
GI50 (CAKI-1 renal): 11.5 µM
TGI (CAKI-1 renal): 24 µM
GI50 (T-47D breast): 2.44 µM
TGI (T-47D breast): 26.4 µM
GI50 (LOX IMVI melanoma): 12.2 µM
TGI (LOX IMVI melanoma): 25.8 µM
GI50 (SR leukemia): 5.95 µM
TGI (SR leukemia): 27.1 µM
GI50 (UACC-257 melanoma): 16.8 µM
TGI (UACC-257 melanoma): 31.7 µM
GI50 (UO-31 renal): 5.7 µM
TGI (UO-31 renal): 23.4 µM
GI50 (SN12C renal): 12.4 µM
TGI (SN12C renal): 27.3 µM
GI50 (NCI-H226 lung): 11.9 µM
TGI (NCI-H226 lung): 35.3 µM
GI50 (A498 renal): 19.4 µM
TGI (A498 renal): 33.9 µM
GI50 (OVCAR-8 ovarian): 4.89 µM
TGI (OVCAR-8 ovarian): 22.6 µM
GI50 (UACC-62 melanoma): 3.25 µM
TGI (UACC-62 melanoma): 20.8 µM
GI50 (HOP-62 NSCLC): 13.3 µM
TGI (HOP-62 NSCLC): 27.4 µM
GI50 (SF-539 CNS): 16.2 µM
TGI (SF-539 CNS): 31.6 µM
GI50 (CCRF-CEM leukemia): 3.38 µM
TGI (CCRF-CEM leukemia): 28.7 µM
GI50 (786-0 renal): 12.4 µM
TGI (786-0 renal): 25.4 µM
GI50 (NCI-H460 lung): 6.66 µM
TGI (NCI-H460 lung): 22.6 µM
GI50 (A549 NSCLC): 15.8 µM
TGI (A549 NSCLC): 32.9 µM
GI50 (COLO 205 colon): 14.3 µM
TGI (COLO 205 colon): 29.5 µM
GI50 (ACHN renal): 12.9 µM
TGI (ACHN renal): 28.3 µM
GI50 (HL-60(TB) leukemia): 9.21 µM
TGI (HL-60(TB) leukemia): 28.4 µM
GI50 (MDA-MB-231 breast): 13.6 µM
TGI (MDA-MB-231 breast): 29.2 µM
GI50 (TK-10 renal): 19.7 µM
TGI (TK-10 renal): 34 µM
GI50 (BT-549 breast): 11.3 µM
TGI (BT-549 breast): 23.5 µM
GI50 (M14 melanoma): 11.9 µM
TGI (M14 melanoma): 25.1 µM
GI50 (MALME-3M melanoma): 4.52 µM
TGI (MALME-3M melanoma): 22 µM
GI50 (U251 CNS): 11.7 µM
TGI (U251 CNS): 25.1 µM
GI50 (SW-620 colon): 15.1 µM
TGI (SW-620 colon): 30.6 µM
GI50 (K-562 leukemia): 11.2 µM
TGI (K-562 leukemia): 40.7 µM
GI50 (SK-OV-3 ovarian): 16.6 µM
TGI (SK-OV-3 ovarian): 30.5 µM
GI50 (EKVX NSCLC): 14.8 µM
TGI (EKVX NSCLC): 29.2 µM
GI50 (HCT-15 colon): 9.37 µM
TGI (HCT-15 colon): 23.3 µM
GI50 (SK-MEL-28 melanoma): 14.6 µM
TGI (SK-MEL-28 melanoma): 31.9 µM
GI50 (MDA-MB-435): 12.6 µM
TGI (MDA-MB-435): 25.1 µM
GI50 (MOLT-4 leukemia): 10.3 µM
TGI (MOLT-4 leukemia): 27.1 µM
GI50 (OVCAR-4 ovarian): 11 µM
TGI (OVCAR-4 ovarian): 25.1 µM
GI50 (SF-295 CNS): 10.6 µM
TGI (SF-295 CNS): 23.3 µM
GI50 (RXF 393 renal): 13.8 µM
TGI (RXF 393 renal): 28.6 µM
GI50 (IGROV1 ovarian): 12.7 µM
TGI (IGROV1 ovarian): 28.1 µM
GI50 (KM12 colon): 10.8 µM
TGI (KM12 colon): 23.6 µM
GI50 (NCI/ADR-RES ovarian): 12.1 µM
TGI (NCI/ADR-RES ovarian): 32.4 µM
GI50 (SNB-75 CNS): 12.7 µM
TGI (SNB-75 CNS): 27.1 µM
GI50 (NCI-H522 lung): 4.27 µM
TGI (NCI-H522 lung): 22.1 µM
GI50 (PC-3 prostate): 0.931 µM
TGI (PC-3 prostate): 15 µM
GI50 (SK-MEL-5 melanoma): 11.6 µM
TGI (SK-MEL-5 melanoma): 23.9 µM
GI50 (HCC-2998 colon): 16.9 µM
TGI (HCC-2998 colon): 33.9 µM
GI50 (NCI-H23 lung): 13.9 µM
TGI (NCI-H23 lung): 31.1 µM
